In one assay the target is human renin (Homo sapiens, UniProt P00797). The following applies: cited from earlier work.
Another assay has as its target porcine pepsin (Sus scrofa, UniProt P00791). In words: Inhibition of substrate hydrolysis by porcine pepsin. In kind it is biochemical.
In another assay the target is T1, R. chinensis pepsin (Rhizopus chinensis, UniProt P06026).
T1 sequence (P06026 69-393): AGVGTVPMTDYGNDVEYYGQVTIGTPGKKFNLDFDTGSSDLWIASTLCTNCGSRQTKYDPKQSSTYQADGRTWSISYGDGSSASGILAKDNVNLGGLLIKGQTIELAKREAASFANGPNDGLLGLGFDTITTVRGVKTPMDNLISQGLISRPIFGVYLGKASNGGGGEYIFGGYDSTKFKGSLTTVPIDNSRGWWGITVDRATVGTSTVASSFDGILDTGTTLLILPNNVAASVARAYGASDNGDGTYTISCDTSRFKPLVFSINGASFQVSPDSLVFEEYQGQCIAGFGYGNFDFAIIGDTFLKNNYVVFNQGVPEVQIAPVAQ
In words: biochemical. The method, then:
Inhibition of substrate hydrolysis by porcine pepsin and R. chinensis pepsin was determined using prior art assay conditions. See Flentke et al. (1999) Protein Expression Purif. 16:213 and Peranteau et al. (1995) Anal. Biochem. 227:242.

Read-outs that look alike come from different tables or passages of the source.

Sequence of human renin (P00797 67-406): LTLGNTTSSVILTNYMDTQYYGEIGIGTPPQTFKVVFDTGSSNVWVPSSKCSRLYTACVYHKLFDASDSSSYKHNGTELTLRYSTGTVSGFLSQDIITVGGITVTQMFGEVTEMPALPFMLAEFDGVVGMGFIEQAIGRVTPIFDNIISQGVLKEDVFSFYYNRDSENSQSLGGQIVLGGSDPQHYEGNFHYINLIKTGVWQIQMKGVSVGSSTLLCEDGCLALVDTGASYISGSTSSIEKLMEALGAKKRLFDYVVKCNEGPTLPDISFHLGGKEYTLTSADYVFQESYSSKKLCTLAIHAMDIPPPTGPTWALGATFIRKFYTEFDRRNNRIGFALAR
Sequence of porcine pepsin (P00791 60-385): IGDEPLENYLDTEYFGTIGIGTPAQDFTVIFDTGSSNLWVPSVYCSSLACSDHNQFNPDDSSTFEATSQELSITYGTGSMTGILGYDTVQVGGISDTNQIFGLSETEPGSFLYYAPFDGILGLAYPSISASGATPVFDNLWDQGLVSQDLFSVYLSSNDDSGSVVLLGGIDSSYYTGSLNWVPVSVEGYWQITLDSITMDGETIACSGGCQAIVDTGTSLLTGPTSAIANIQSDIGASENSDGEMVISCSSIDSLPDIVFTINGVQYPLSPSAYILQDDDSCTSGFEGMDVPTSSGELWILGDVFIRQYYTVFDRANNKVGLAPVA

As to `COc1ccc(CO[C@H]2CNCCC2c2ccc(Cl)cc2)cc1` (stereo partly drawn) [Compound 4], the “concentrations at which renin is inhibited (in words)” value at human renin (human renin, literature) is on record as “low micromolar”. For the same molecule, the IC50 at human renin (read-out: inhibits renin at, renin, literature value) was around 26 µM.
`Brc1ccc(CO[C@H]2CNCC[C@@H]2c2ccccc2)cc1` [Compound 12]: the IC50 at porcine pepsin turned out to be 2 µM; at R. chinensis pepsin (R. chinensis pepsin, read-out: IC50) it was 2 µM.
For the molecule `O=C(COc1ccc([C@H]2CCNC[C@@H]2OCc2ccc(Br)cc2)cc1)c1ccc2ccccc2c1` [Compound 11], the IC50 came out at 0.2 µM on porcine pepsin (porcine pepsin, read-out: IC50) and 0.2 µM against R. chinensis pepsin.
